Test results published in patent US8426385B2 (Hainan Hdeton Science and Technology Co. Ltd., priority 2006, dated 2013).
Values after ≈ are worked out from the molar mass of the structure shown. Values belong to the compound of their own block, whether it stands above or below them.

Legend:
[1] = Paclitaxel stability test in solution (HPLC assay); assay type: physicochemical; conditions: mobile phase pH=6.50, diluted 100 times
Experimental: (§1) HPLC chromatographic conditions: chromatographic column ODS C18 (250 mm×4.6 mm); mobile phase: methanol:water:acetonitrile (20:30:50); flow rate: 1.0 ml/min; detection wavelength: 228 nm; detection time: 30.00 min; detection sensitivity: 1.0000 AUFS.
The sample solutions had stable chemical properties and the content was basically unchanged.

[2] = Inclusion solubilization test (paclitaxel solubility in cyclodextrin solution); assay type: physicochemical; conditions: 25° C.; for Paclitaxel solubility in cyclodextrin solution: 72 h
Text: A standard curve was plotted by A and concentration C (mg/ml) (A=393.2 C−0.0123; r=0.9998).

[3] = Solid inclusion stability, 5-day acceleration test (HPLC content); assay type: physicochemical
Experimental: as §1
Samples were put in a sealed transparent container and then placed in an illumination box equipped with fluorescent light of 4500±500 LX illumination intensity for 5 days. Sampling inspection analysis was conducted, and the test results were compared with the samples of 0 day.
Samples were placed in a clean sealed container at temperature of 60° C. for 5 days. Sampling inspection analysis was conducted, and the test results were compared with the samples of 0 day.
Samples were placed in a sealed container of constant humidity at temperature of 25° C. and relative humidity of 90±5% for 5 days. Sampling inspection analysis was conducted, and the test results were compared with the samples of 0 day.

S180 cells = test: In vivo anti-tumor effect, S180 solid tumor model; conditions: Kunming mice, intraperitoneal, 7 days, 5 mg/kg dose (printed for the inclusion)
[4] = Animal body weight in the S180 anti-tumor test; conditions: S180 solid tumor, Kunming mice, intraperitoneal, 7 days
[5] = Determination of inclusion stability constant Ka by UV spectrophotometry; assay type: physicochemical; conditions: 234 nm
Experimental: The inclusion stability constant Ka is used to determine the degree of inclusion and UV spectrophotometry is one of common methods to determine Ka. […] Meanwhile, the changes of Ka after adding ethanol are determined in the test, and the Ka values of different cyclodextrins are shown in Table 1.

[6] = aqueous solution; UV spectrum study; cited from earlier work
[7] = phase solubility studies; cited from earlier work
[8] = about 50% cyclodextrin aqueous solution, pure water; cited from earlier work
[9] = cited from earlier work
[10] = cyclodextrin concentration 31 %

Compound: CC(=O)O[C@H]1C(=O)[C@@]2(C)[C@H]([C@H](OC(=O)c3ccccc3)[C@]3(O)C[C@H](OC(=O)[C@H](O)[C@@H](NC(=O)c4ccccc4)c4ccccc4)C(C)=C1C3(C)C)[C@]1(OC(C)=O)CO[C@@H]1C[C@@H]2O [Paclitaxel, (2S,5R,7S,10R,13S)-10,20-bi(acetoxy)-2-benzoyl-oxy-1,7-dihydroxy-9-oxo-5,20-epoxy taxanes-11-ene-13-radical(3S)-3-benzoyl amino-3-phenyl-D-lactic acid ester]
Content in aqueous solution ([1]; 0 h): 99.745% | Content in aqueous solution ([1]; 2 h): 99.700% | Content in aqueous solution ([1]; 4 h): 99.577% | Content in aqueous solution ([1]; 6 h): 99.648% | Content in aqueous solution ([1]; 8 h): 99.608% | solubility at 72 h ([2]; thermodynamic from solid, pure water, cyclodextrin concentration 0 %): 0.589 µg/mL (≈ 0.69 µM) | Content ([3]; 0 day): 99.748% | Content ([3]; High humidity, 25° C., RH 90±5%, 5 days): 89.336% | Content ([3]; High temperature, 60° C., 5 days): 91.569% | Content ([3]; Light, 4500±500 LX, 5 days): 90.346% | anti-tumor rate (S180 cells): 82.77% | effect on animal body weight [4]: reduce the animal body weight | weight loss of animals compared with the inclusion group [4]: greater

Compound: hydroxypropyl-β-cyclodextrin
first-level apparent stability constant Ka of cyclodextrin/paclitaxel ([5]; 60% EtOH): 4646 M⁻¹ | first-level apparent stability constant Ka of cyclodextrin/paclitaxel ([5]; H2O): 1325 M⁻¹ | inclusion constant [6]: 3030 M⁻¹ | dual-inclusion constant with paclitaxel [7]: 7965 M^− | paclitaxel solubility [8]: 3400 µg/mL

Compound: sulfobutyl-β-cyclodextrin
first-level apparent stability constant Ka of cyclodextrin/paclitaxel ([5]; 60% EtOH): 9367 M⁻¹ | first-level apparent stability constant Ka of cyclodextrin/paclitaxel ([5]; H2O): 5396 M⁻¹ | Paclitaxel solubility in cyclodextrin solution ([2]; cyclodextrin concentration 25 %): 9324 µg/mL | Paclitaxel solubility in cyclodextrin solution [2, 10]: 10182 µg/mL | water-solubility [9]: > 50 g/100 g H2O

Compound: OC[C@H]1O[C@@H]2O[C@H]3[C@H](O)[C@@H](O)[C@@H](O[C@H]4[C@H](O)[C@@H](O)[C@@H](O[C@H]5[C@H](O)[C@@H](O)[C@@H](O[C@H]6[C@H](O)[C@@H](O)[C@@H](O[C@H]7[C@H](O)[C@@H](O)[C@@H](O[C@H]8[C@H](O)[C@@H](O)[C@@H](O[C@H]9[C@H](O)[C@@H](O)[C@@H](O[C@H]1[C@H](O)[C@H]2O)O[C@@H]9CO)O[C@@H]8CO)O[C@@H]7CO)O[C@@H]6CO)O[C@@H]5CO)O[C@@H]4CO)O[C@@H]3CO [γ-cyclodextrin]
dual-inclusion constant with paclitaxel [7]: 785 M⁻¹

Next, values leading:

first-level apparent stability constant Ka of cyclodextrin/paclitaxel ([5]; 60% EtOH): 19722 M⁻¹ | first-level apparent stability constant Ka of cyclodextrin/paclitaxel ([5]; H2O): 14121 M⁻¹ | Paclitaxel solubility in cyclodextrin solution [2, 10]: 11177 µg/mL
Compound: hydroxypropyl-sulfobutyl-β-cyclodextrin

first-level apparent stability constant Ka of cyclodextrin/paclitaxel ([5]; H2O): 413 M⁻¹
Compound: OC[C@H]1O[C@@H]2O[C@H]3[C@H](O)[C@@H](O)[C@@H](O[C@H]4[C@H](O)[C@@H](O)[C@@H](O[C@H]5[C@H](O)[C@@H](O)[C@@H](O[C@H]6[C@H](O)[C@@H](O)[C@@H](O[C@H]7[C@H](O)[C@@H](O)[C@@H](O[C@H]8[C@H](O)[C@@H](O)[C@@H](O[C@H]1[C@H](O)[C@H]2O)O[C@@H]8CO)O[C@@H]7CO)O[C@@H]6CO)O[C@@H]5CO)O[C@@H]4CO)O[C@@H]3CO [β-cyclodextrin]
